Data on six compounds can be found in patent publication EP0386657A1, “Preparation for treating systemic lupus erythematosus” (MECT CORPORATION, priority 1989, dated 1990).

Read-outs that look alike come from different tables or passages of the source.

In one data set the test system is passive Arthus reaction. Nature of the data set: passive Arthus reaction (bleeding of skin). The format is in vivo, Male Hartley guinea pig. Here is the method:
Male Hartley guinea pig weighing 300 to 400 g was used.
According to the conventional method, Anti-OA (rabbit) was prepared. That is, by using New Zealand strain rabbits having a weight of 2.0 to 2.2 kg, 1 ml of an emulsion comprising 20 mg of OA and Freund complete adjuvant (available from DIFCO LABORATORIES) was subcutaneously injected to back side portion and active sensitization was effected for total 4 times for every two weeks.
After two weeks from the final sensitizing date, blood was gathered from common carotid artery and after separation of antiserum, it was stored under freezing at -20°C by the usage for experiment.
The passive Arthus reaction was effected according to the method of Katayama et al. [S. Katayama, et al., Arzneim.-Forsh., vol. 31, p. […] However, in order to cause sufficient reaction, change were added to a cocentration of OA solution. That is, sensitization was effected by intravenously injecting 1 ml of antiserum stock solution and 30 minutes after, the reaction was caused by intradermally injecting respective 0.05 ml of OA solutions, each containing 0.025 mg and 0.05 mg of OA respectively, to each one portion of an abdominal part and total two portions of guinea pig at which hair was cut at the day before. At this time, a physiological saline solution was intradermal injected simultaneously in the same manner as a blank. […] And, the value was calibrated by the blank to be made as the experimental results.
1, 5 or 20 mg/kg of sodium N-acetylneuraminate, or physiological saline solution (1 mg/kg) as a control was intravenously injected before 30 minutes of antigen-challenge or immediately after sensitization.
Also, Student's t-test was employed for significant test and p < 0.05 was made as statistically significant.

The next data set concerns ddy male mouse. Nature of the data set: simple acute toxicity test, intravenous injection to mouse. The format is in vivo. Particulars: 3 mice; for Final death rate: observed 7 days. How it is done:
(§1) Simple acute toxicity test of the agent to be tested due to intravenous injection to mouse was effected as shown below.
(§2) • (1) Agents to be tested Lithium salt, potassium salt, barium salt and magnesium salt of N-acetylneuraminic acid (all available from MECT Corporation) were used. • (2) Animal for experiment ddy male mouse Weight at initial of the test : 17.7 to 21.1 g Animal number per one level : 3 • (3) Room temperature : 23 ± 1 °C, Humidity : 55 ± 7 % • (4) Administration route : intravenous • (5) Administration method and amount thereof The above agent to be tested was dissolved with a physiological saline solution, and that which is prepared so as to become the administration amount of 0.2 ml per 20 g of mouse weight was injected into a tail vein. An administered amount was made to three levels of 500, 1000 and 2000 mg/kg. • (6) Observation of general condition and death condition Observations of the general condition and presence or absence of death were conducted from immediately after administration to after 7 days.

Test in data set [1]: as above
Particulars: mouse, in vivo, observed 7 days, 3 mice, read-out: Final death rate (converted). The data set is classed as in vivo, ddy male mouse. How it is done: as §1, §2

Data set [2] is described as follows: acute toxicity test, guinea pig. The note with it: in vivo, iv, 14 days observed, read-out: LD₅₀. The text has this:
(§3) Acute toxicity tests of sodium N-acetylneuraminate against mouse, rat and guinea pig due to oral, subcutaneous injection, intraperitoneal injection, intravenous injection and inhalation were effected as shown below. • (1) Animals to be tested ICR mouse 6 weeks old SD rat 6 weeks old Hartley guinea pig 6 weeks old • (2) Chemicals concentration 20 % (w/v) dissolved in distilled water • (3) Animal number per one level Ten • (4) Terms observed 14 days • (5) Calculation method of LD₅₀ Probit method

The next data set in a line: acute toxicity test, rat. The note with it: in vivo, male, 14 days observed, read-out: LD₅₀. The data set is classed as in vivo.
Description: as §3
(§4) Inhalation is effected by exposing powder to be tested for one hour.

Another data set has as its system SD rat. Nature of the data set: acute toxicity test, rat. The data set is classed as in vivo.
Description: as §3, §4

Data set [3] in a line: acute toxicity test, mouse. The data set is classed as in vivo. Particulars: in vivo, male, 14 days observed, read-out: LD₅₀.
Description: as §3

In another data set the test system is ICR mouse. Nature of the data set: acute toxicity test, mouse. The format is in vivo. The note with it: female, 14 days observed.
Description: as §3

With `CC(=O)N[C@H]1[C@H]([C@H](O)[C@H](O)CO)OC(O)(C(=O)O)C[C@@H]1O` (stereo partly shown) [N-acetylneuraminic acid], in the data set on passive Arthus reaction (general statement, in vivo), the “inhibiting effect to Arthus reaction” value is “has inhibiting effect to Arthus reaction”.

Consider `CC(=O)N[C@H]1[C@H]([C@H](O)[C@H](O)CO)OC(O)(C(=O)[O-])C[C@@H]1O.[Li+]` (stereo partly shown) [Lithium N-acetylneuraminate], for which the “Died number with a lapse of time” value in the data set on ddy male mouse (500 mg/kg intravenous, 1 hrs) came to 0; in the data set on ddy male mouse (500 mg/kg intravenous, 3 hrs), 0; with ddy male mouse (500 mg/kg intravenous, 6 hrs) it was 0; with ddy male mouse (500 mg/kg intravenous, 24 hrs), 0; in the data set on ddy male mouse (500 mg/kg intravenous, 2 days), 0; with ddy male mouse (500 mg/kg intravenous, 3 days) it was 0. Moreover, the “Died number with a lapse of time” value is on record as 0 in the data set on ddy male mouse (500 mg/kg intravenous, 4 days); 0 in the data set with ddy male mouse (500 mg/kg intravenous, 5 days); 0 with ddy male mouse (500 mg/kg intravenous, 6 days); 0 in the data set on ddy male mouse (500 mg/kg intravenous, 7 days); 0 in the data set on ddy male mouse (1000 mg/kg intravenous, 1 hrs); 0 in the data set with ddy male mouse (1000 mg/kg intravenous, 3 hrs). The “Died number with a lapse of time” value in the data set on ddy male mouse (1000 mg/kg intravenous, 6 hrs) came out at 0; in the data set with ddy male mouse (1000 mg/kg intravenous, 24 hrs), 0; with ddy male mouse (1000 mg/kg intravenous, 2 days), 0; in the data set on ddy male mouse (1000 mg/kg intravenous, 3 days), 0; in the data set with ddy male mouse (1000 mg/kg intravenous, 4 days) it was 0; in the data set on ddy male mouse (1000 mg/kg intravenous, 5 days), 0. Further, the “Died number with a lapse of time” value turned out to be 0 in the data set with ddy male mouse (1000 mg/kg intravenous, 6 days); 0 in the data set on ddy male mouse (1000 mg/kg intravenous, 7 days); 0 in the data set on ddy male mouse (2000 mg/kg intravenous, 1 hrs); 0 in the data set on ddy male mouse (2000 mg/kg intravenous, 3 hrs); 0 in the data set on ddy male mouse (2000 mg/kg intravenous, 6 hrs); 0 in the data set on ddy male mouse (2000 mg/kg intravenous, 24 hrs). Besides, the “Died number with a lapse of time” value in the data set on ddy male mouse (2000 mg/kg intravenous, 2 days) came to 0; in the data set with ddy male mouse (2000 mg/kg intravenous, 3 days), 0; with ddy male mouse (2000 mg/kg intravenous, 4 days) it was 0; in the data set with ddy male mouse (2000 mg/kg intravenous, 5 days), 0; with ddy male mouse (2000 mg/kg intravenous, 6 days), 0; in the data set with ddy male mouse (2000 mg/kg intravenous, 7 days) it was 0. In addition, the Final death rate in the data set with ddy male mouse (500 mg/kg intravenous), in the data set with ddy male mouse (1000 mg/kg intravenous) and in the data set with ddy male mouse (2000 mg/kg intravenous) was 0/3 each time.

As for `CC(=O)N[C@H]1[C@H]([C@H](O)[C@H](O)CO)OC(O)(C(=O)[O-])C[C@@H]1O.[K+]` (stereo partly shown) [Potassium N-acetylneuraminate], the mortality at 168 h in data set [1] (1000 mg/kg intravenous) and in data set [1] (2000 mg/kg intravenous) was 100% in each case. Also, the “Died number with a lapse of time” value in the data set with ddy male mouse (500 mg/kg intravenous, 1 hrs) came out at 0; in the data set with ddy male mouse (500 mg/kg intravenous, 3 hrs), 0; in the data set with ddy male mouse (500 mg/kg intravenous, 6 hrs) it was 0; in the data set with ddy male mouse (500 mg/kg intravenous, 24 hrs), 0; with ddy male mouse (500 mg/kg intravenous, 2 days), 0; with ddy male mouse (500 mg/kg intravenous, 3 days), 0. The “Died number with a lapse of time” value in the data set on ddy male mouse (500 mg/kg intravenous, 4 days) turned out to be 0; with ddy male mouse (500 mg/kg intravenous, 5 days), 0; in the data set on ddy male mouse (500 mg/kg intravenous, 6 days), 0; with ddy male mouse (500 mg/kg intravenous, 7 days), 0; with ddy male mouse (1000 mg/kg intravenous, 1 hrs), 3; with ddy male mouse (1000 mg/kg intravenous, 3 hrs) it was 0. For the same compound, the “Died number with a lapse of time” value in the data set with ddy male mouse (1000 mg/kg intravenous, 6 hrs) is 0; with ddy male mouse (1000 mg/kg intravenous, 24 hrs), 0; in the data set on ddy male mouse (1000 mg/kg intravenous, 2 days), 0; in the data set on ddy male mouse (1000 mg/kg intravenous, 3 days) it was 0; in the data set with ddy male mouse (1000 mg/kg intravenous, 4 days), 0; in the data set on ddy male mouse (1000 mg/kg intravenous, 5 days), 0. In addition, the “Died number with a lapse of time” value was 0 with ddy male mouse (1000 mg/kg intravenous, 6 days); 0 in the data set with ddy male mouse (1000 mg/kg intravenous, 7 days); 3 in the data set with ddy male mouse (2000 mg/kg intravenous, 1 hrs); 0 in the data set on ddy male mouse (2000 mg/kg intravenous, 3 hrs); 0 in the data set with ddy male mouse (2000 mg/kg intravenous, 6 hrs); 0 with ddy male mouse (2000 mg/kg intravenous, 24 hrs). In addition, the “Died number with a lapse of time” value in the data set on ddy male mouse (2000 mg/kg intravenous, 2 days) stood at 0; with ddy male mouse (2000 mg/kg intravenous, 3 days), 0; in the data set with ddy male mouse (2000 mg/kg intravenous, 4 days), 0; in the data set with ddy male mouse (2000 mg/kg intravenous, 5 days), 0; with ddy male mouse (2000 mg/kg intravenous, 6 days), 0; in the data set on ddy male mouse (2000 mg/kg intravenous, 7 days) it was 0. Further, the Final death rate with ddy male mouse (500 mg/kg intravenous) is reported as 0/3; in the data set on ddy male mouse (1000 mg/kg intravenous) it was 3/3; with ddy male mouse (2000 mg/kg intravenous), 3/3.

Take `CC(=O)N[C@H]1[C@H]([C@H](O)[C@H](O)CO)OC(O)(C(=O)[O-])C[C@@H]1O.[Na+]` (stereo partly shown): the LD50 at 336 h in data set [2] is over 5000 mg/kg; in “acute toxicity test, rat” (ip, i.p.) it was over 5000 mg/kg; in the data set “acute toxicity test, rat” (iv, i.v.) it was over 5000 mg/kg; in “acute toxicity test, rat” (po, p.o.), over 5000 mg/kg; in “acute toxicity test, rat” (sc, s.c.), over 5000 mg/kg; in data set [3] (ip, i.p.), over 5000 mg/kg. Also, the LD50 at 336 h in data set [3] (iv, i.v.) is over 5000 mg/kg; in data set [3] (po, p.o.) it was over 5000 mg/kg; in data set [3] (sc, s.c.) it was over 5000 mg/kg. In addition, the LD₅₀ in the data set with SD rat (female, i.p., 14 days observed) is on record as >5,000 mg/kg; in the data set on SD rat (female, i.v., 14 days observed), >5,000 mg/kg; with SD rat (female, inhalation, powder exposure for one hour), >4,000 mg/m³; with SD rat (female, p.o., 14 days observed), >5,000 mg/kg; in the data set with SD rat (female, s.c., 14 days observed) it was >5,000 mg/kg; in the data set on SD rat (male, inhalation, powder exposure for one hour), >4,000 mg/m³. Also, the LD₅₀ in the data set with ICR mouse (i.p.), in the data set with ICR mouse (i.v.), in the data set with ICR mouse (p.o.) and in the data set on ICR mouse (s.c.) was >5,000 mg/kg in each case. Moreover, the bleeding of skin entry with passive Arthus reaction (20 mg/kg intravenously, guinea pig) is “remarkable”; in the data set with passive Arthus reaction (1, 5 or 20 mg/kg intravenously, 30 minutes before antigen challenge, guinea pig, Fig. 1 and Fig. 2), “depressed depending on an amount to be used”. For the same compound, the “inhibiting effect on bleeding of skin” value with passive Arthus reaction (24 hours after antigen challenge, guinea pig) is on record as “continued even after 24 hours from antigen challenge”.

Turning to `CC(=O)NC1C(O)CC(O)(C(=O)O)OC1C(O)C(O)CO` (stereo not shown) [Barium N-acetylneuraminate], the mortality at 168 h in data set [1] (500 mg/kg intravenous) is 100%.

As to `CC(=O)NC1C(O)CC(O)(C(=O)O)OC1C(O)C(O)CO` (stereo not shown) [Magnesium N-acetylneuraminate], the mortality at 168 h in data set [1] (1000 mg/kg intravenous) and in data set [1] (2000 mg/kg intravenous) was 100% throughout.
